Data taken from patent publication US12662451B2, “Chemical compounds and uses thereof” (GLAXOSMITHKLINE INTELLECTUAL PROPERTY (NO.4) LIMITED, priority 2023, dated 2026).
Read-outs that look alike come from different tables or passages of the source.

Assays:
[1] = tested on: SW48 human colorectal cancer cells; assay: Calculated free drug potency in SW48 cell assay, corrected with media free fraction (Example C); format: cell-based; details: Homo sapiens, SW48, SW48 pCC50 corrected with measured free fraction in cell assay media
Summary of the method: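 Compound spiked at nominal 1 μM into cell assay medium and dialysed against PBS (100 mM sodium phosphate, 150 mM NaCl, pH 7.4) by rapid equilibrium dialysis, 4 h, 37 °C, shaking. Percent unbound from LC-MS/MS peak area ratios (240 min vs 0 min); cell assay concentrations corrected by this free fraction.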

[2] = tested on: SW48 human colorectal cancer cells (MSI-H cancer cells); assay: SW48 cell viability, CellTiter-Glo, 120 hours (Example B); details: Homo sapiens
[3] = molecular target: T1, recombinant full-length WRN protein (1-1432) (Homo sapiens, UniProt Q14191); assay: WRN unwinding activity, fluorogenic 384-well assay (Example A); format: biochemical; details: WRN unwinding activity, 4 hr; Table 2; read-out: 4 hr UNW pIC50 (converted)
T1 construct: recombinant full-length WRN protein (1-1432)
Summary of the method: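 200 pM enzyme (2× stock) preincubated with compound 4 h at ambient temperature, then 200 μM ATP and 12 nM quenched TAMRA-labelled dsDNA (2× stocks) added for 60 min; EDTA-quenched. Buffer 25 mM Tris pH 8.0, 5 mM NaCl, 2 mM MgCl2. Fluorescence at 525/598 nm; pIC50 from four-parameter fit.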

[4] = Cell culture media unbound percentage and stability by rapid equilibrium dialysis (Example C); format: in vitro ADME; details: bovine, cell assay medium (RPMI-1640 with 10% fetal bovine serum), pH 7.4, rapid equilibrium dialysis, 4 hours at 37° C., read-out: Cell Culture Media Binding (% unbound)
Summary of the method: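 Compound spiked into cell culture medium at nominal 1 μM and dialysed against PBS (100 mM sodium phosphate + 150 mM NaCl, pH 7.4) by rapid equilibrium dialysis, triplicate, 4 h at 37° C with shaking. LC-MS/MS peak area ratios gave percent unbound (receiver/donor) and percent stability (240 min vs 0 min).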

[5] = SW48, 120 h, read-out: SW48 pCC50, SW48 cell viability, 120 hours incubation (converted), Table 2
[6] = SW48, read-out: SW48 pCC50, measured potency from Example B, as repeated in Table 3 (converted)

T1 sequence (Q14191 whole entry): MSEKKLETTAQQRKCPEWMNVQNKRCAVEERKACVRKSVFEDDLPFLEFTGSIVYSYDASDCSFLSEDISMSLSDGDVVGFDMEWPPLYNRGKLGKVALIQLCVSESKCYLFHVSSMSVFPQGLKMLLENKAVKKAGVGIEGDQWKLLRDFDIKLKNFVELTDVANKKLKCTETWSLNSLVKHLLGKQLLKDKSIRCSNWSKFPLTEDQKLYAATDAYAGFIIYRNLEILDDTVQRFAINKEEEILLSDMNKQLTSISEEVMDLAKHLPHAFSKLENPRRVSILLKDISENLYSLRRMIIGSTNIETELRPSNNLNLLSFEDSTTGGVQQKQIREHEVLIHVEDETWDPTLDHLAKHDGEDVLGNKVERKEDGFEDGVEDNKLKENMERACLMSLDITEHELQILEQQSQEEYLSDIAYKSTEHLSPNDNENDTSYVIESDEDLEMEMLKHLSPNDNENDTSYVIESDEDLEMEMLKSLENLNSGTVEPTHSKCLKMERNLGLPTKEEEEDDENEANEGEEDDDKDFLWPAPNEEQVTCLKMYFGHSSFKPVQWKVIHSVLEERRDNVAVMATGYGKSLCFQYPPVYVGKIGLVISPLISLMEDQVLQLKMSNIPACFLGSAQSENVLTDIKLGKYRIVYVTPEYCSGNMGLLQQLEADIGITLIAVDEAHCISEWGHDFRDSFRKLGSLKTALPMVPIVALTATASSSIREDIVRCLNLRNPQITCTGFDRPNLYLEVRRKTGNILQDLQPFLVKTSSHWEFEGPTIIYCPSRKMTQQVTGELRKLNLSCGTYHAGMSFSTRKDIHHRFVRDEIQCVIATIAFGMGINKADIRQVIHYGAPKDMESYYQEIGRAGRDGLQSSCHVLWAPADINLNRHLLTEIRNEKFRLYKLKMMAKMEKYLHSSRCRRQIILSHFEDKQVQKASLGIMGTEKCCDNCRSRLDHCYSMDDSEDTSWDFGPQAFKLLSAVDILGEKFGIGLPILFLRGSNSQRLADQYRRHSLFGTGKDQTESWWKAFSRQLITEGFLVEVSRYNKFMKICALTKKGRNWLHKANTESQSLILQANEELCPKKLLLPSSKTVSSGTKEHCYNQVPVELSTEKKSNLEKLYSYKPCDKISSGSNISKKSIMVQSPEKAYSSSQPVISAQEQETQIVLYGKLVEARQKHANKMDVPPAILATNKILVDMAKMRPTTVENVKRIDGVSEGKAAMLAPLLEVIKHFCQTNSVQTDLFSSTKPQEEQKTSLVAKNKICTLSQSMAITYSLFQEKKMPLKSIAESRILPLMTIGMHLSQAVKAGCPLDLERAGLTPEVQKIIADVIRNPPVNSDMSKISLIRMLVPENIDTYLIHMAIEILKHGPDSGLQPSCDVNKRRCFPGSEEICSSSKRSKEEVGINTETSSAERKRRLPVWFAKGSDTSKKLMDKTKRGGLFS

Row | IC50 [3] [nM] | fraction unbound at 4 h, 1 µM [4] | Compound | CC50 [1] [nM] | CC50 [2, 5] [nM] | CC50 [2, 6] [nM]
1 | 1.58 | 0.0491 | Cc1nc2cc(S(=O)(=O)N(C)c3ccc([C@H]4C[C@H](NCC(F)(F)F)C[C@@H](C(=O)Nc5ccc(C(F)(F)F)cc5F)[C@@H]4C(=O)O)cc3)ccc2n1C (stereo in doubt) [Example 336, rel-(1R,2R,4S,6S)-2-((2-fluoro-4-(trifluoromethyl)phenyl)carbamoyl)-4-((2,2,2-trifluoroethyl)amino)-6-(4-((N,1,2-trimethyl-1H-benzo[d]imidazole)-5-sulfonamido)phenyl)cyclohexane-1-carboxylic acid] | 155 | 3160 | 3160
2 | 3.16 | 0.068 | Cc1nc2cc(S(=O)(=O)N(C)c3ccc([C@H]4C[C@@H](OC(F)F)C[C@@H](C(=O)Nc5ccc(C(F)(F)F)cc5F)[C@@H]4C(=O)O)cc3)ccc2n1C (stereo in doubt) [Example 284, rel-(1R,2R,4R,6S)-4-(difluoromethoxy)-2-((2-fluoro-4-(trifluoromethyl)phenyl)carbamoyl)-6-(4-((N,1,2-trimethyl-1H-benzo[d]imidazole)-5-sulfonamido)phenyl)cyclohexane-1-carboxylic acid] | 13.5 | 200 | 200
3 | 1.58 | 0.273 | CC(=O)N1C[C@H](c2ccc(N(C)S(=O)(=O)c3ccc4c(c3)nc(C)n4C)cc2)[C@@H](C(=O)O)[C@H](C(=O)Nc2ccc(C(F)(F)F)cc2F)C1 (stereo in doubt) [Example 310, rel-(3R,4S,5R)-1-acetyl-3-((2-fluoro-4-(trifluoromethyl)phenyl)carbamoyl)-5-(4-((N,1,2-trimethyl-1H-benzo[d]imidazole)-5-sulfonamido)phenyl)piperidine-4-carboxylic acid] | 437 | 1580 | 1580
4 | 5.01 | 0.102 | CCOC1CC(C(=O)Nc2ccc(C(F)(F)F)cc2)C(C(=O)O)C(c2ccc(N(C)S(=O)(=O)c3ccc4c(c3)nc(C)n4C)cc2)C1 [Example 330, rel-(1R,2R,4R,6S)-4-ethoxy-2-((4-(trifluoromethyl)phenyl)carbamoyl)-6-(4-((N,1,2-trimethyl-1H-benzo[d]imidazole)-5-sulfonamido)phenyl)cyclohexane-1-carboxylic acid] | 40.7 | 398 | 398
5 | 1.58 | 0.136 | Cc1nc2cc(S(=O)(=O)N(C)c3ccc([C@H]4C[C@@H](N5CC[C@@H](F)C5)C[C@@H](C(=O)Nc5ccc(C(F)(F)F)cc5F)[C@@H]4C(=O)O)cc3)ccc2n1C (stereo in doubt) [Example 382, rel-(1R*,2R*,4R*,6S*)-2-((2-fluoro-4-(trifluoromethyl)phenyl)carbamoyl)-4-((R)-3-fluoropyrrolidin-1-yl)-6-(4-((N,1,2-trimethyl-1H-benzo[d]imidazole)-5-sulfonamido)phenyl)cyclohexane-1-carboxylic acid] | 8.51 | 63.1 | 63.1
6 | 1 | 0.274 | Cc1nc2cc(S(=O)(=O)N(C)c3ccc([C@H]4C[C@@H](N(C)C)C[C@@H](C(=O)Nc5ccc(C(F)(F)F)cc5F)[C@@H]4C(=O)O)cc3)ccc2n1C (stereo in doubt) [Example 251, rel-(1R,2R,4R,6S)-4-(dimethylamino)-2-((2-fluoro-4-(trifluoromethyl)phenyl)carbamoyl)-6-(4-((N,1,2-trimethyl-1H-benzo[d]imidazole)-5-sulfonamido)phenyl)cyclohexane-1-carboxylic acid] | 138 | 501 | 501
7 | 3.98 | 0.0127 | Cc1nc2cc(S(=O)(=O)N(C)c3ccc([C@H]4C[C@@H](OCC5CCC5)C[C@@H](C(=O)Nc5ccc(C(F)(F)F)cc5F)[C@@H]4C(=O)O)cc3)ccc2n1C (stereo in doubt) [Example 154, rel-(1R,2R,4R,6S)-4-(cyclobutylmethoxy)-2-((2-fluoro-4-(trifluoromethyl)phenyl)carbamoyl)-6-(4-((N,1,2-trimethyl-1H-benzo[d]imidazole)-5-sulfonamido)phenyl)cyclohexane-1-carboxylic acid] | 5.01 | 398 | 398
8 | 2.51 | 0.296 | Cc1nc2cc(S(=O)(=O)N(C)c3ccc([C@H]4C[C@@H](OC[C@H]5COCCO5)C[C@@H](C(=O)Nc5ccc(C(F)(F)F)cc5F)[C@@H]4C(=O)O)cc3)ccc2n1C (relative stereo) [Example 327, (1R*,2R*,4R*,6S*)-4-(((R)-1,4-dioxan-2-yl)methoxy)-2-((2-fluoro-4-(trifluoromethyl)phenyl)carbamoyl)-6-(4-((N,1,2-trimethyl-1H-benzo[d]imidazole)-5-sulfonamido)phenyl)cyclohexane-1-carboxylic acid] | 58.9 | 200 | 200
9 | 1.58 | 0.218 | Cc1nc2cc(S(=O)(=O)N(C)c3ccc([C@H]4C[C@@H](N5CCC[C@H](F)C5)C[C@@H](C(=O)Nc5ccc(C(F)(F)F)cc5F)[C@@H]4C(=O)O)cc3)ccc2n1C (stereo in doubt) [Example 350, rel-(1R*,2R*,4R*,6S*)-2-((2-fluoro-4-(trifluoromethyl)phenyl)carbamoyl)-4-((S)-3-fluoropiperidin-1-yl)-6-(4-((, 1,2-trimethyl-1H-benzo[d]imidazole)-5-sulfonamido)phenyl)cyclohexane-1-carboxylic acid] | 13.8 | 63.1 | 63.1
10 | 1.58 | 0.0795 | Cc1nc2cc(S(=O)(=O)N(C)c3ccc([C@H]4C[C@@H](OCC5CC5)C[C@@H](C(=O)Nc5ccc(C(F)(F)F)cc5F)[C@@H]4C(=O)O)cc3)ccc2n1C (stereo in doubt) [Example 314, rel-(1R,2R,4R,6S)-4-(cyclopropylmethoxy)-2-((2-fluoro-4-(trifluoromethyl)phenyl)carbamoyl)-6-(4-((N,1,2-trimethyl-1H-benzo[d]imidazole)-5-sulfonamido)phenyl)cyclohexane-1-carboxylic acid] | 12.6 | 158 | 158
11 | 2.51 | 0.16 | CCO[C@@H]1C[C@H](c2ccc(N(C)S(=O)(=O)c3ccc4c(c3)nc(C)n4C)cc2)[C@@H](C(=O)O)[C@H](C(=O)Nc2ccc(C(F)(F)F)cn2)C1 (single isomer, unassigned) [Example 199] | 79.4 | 501 | 501
12 | 1580 | 0.169 | Cc1nc2cc(S(=O)(=O)N(C)c3ccc([C@@H]4C[C@@H](N5CCCC(F)(F)C5)C[C@H](C(=O)Nc5ccc(C(F)(F)F)cc5F)[C@H]4C(=O)O)cc3)ccc2n1C (stereo in doubt) [Example 362, rel-(1R,2R,4S,6S)-4-(3,3-difluoropiperidin-1-yl)-2-((2-fluoro-4-(trifluoromethyl)phenyl)carbamoyl)-6-(4-((N,1,2-trimethyl-1H-benzo[d]imidazole)-5-sulfonamido)phenyl)cyclohexane-1-carboxylic acid] | 1700 | 10000 | 
